Our source for the IC50 values is patent US20250163104A1, “MACROCYCLIC IMMUNOMODULATORS” (priority 2021, published 2025).

Where a SMILES comes first, the peptide text is derived from it. Bridges are numbered along the chain shown (N, C = ends). [ ]: non-standard residue; d: D form. The star is where a group is joined. Bip = N[C@@H](Cc1ccc(-c2ccccc2)cc1)C(=O)O; Phe(3-Me) = Cc1cccc(C[C@H](N)C(=O)O)c1; 4Pal = N[C@@H](Cc1ccncc1)C(=O)O; Cha = N[C@@H](CC1CCCCC1)C(=O)O; Cit = NC(=O)NCCC[C@H](N)C(=O)O; Carboxymethyl = O=C(O)C*; Orn = NCCC[C@H](N)C(=O)O; Dab = NCC[C@H](N)C(=O)O; Dap = NC[C@H](N)C(=O)O

The target of this assay is T1, human PD-1 / PD-L1-Ig binding on Jurkat cell line over-expressing human PD-1 (Jurkat-PD-1) (Homo sapiens, UniProt Q15116).
T1 construct: expressed in transfected cells; host or cells: Jurkat
T1 sequence (Q15116 25-288): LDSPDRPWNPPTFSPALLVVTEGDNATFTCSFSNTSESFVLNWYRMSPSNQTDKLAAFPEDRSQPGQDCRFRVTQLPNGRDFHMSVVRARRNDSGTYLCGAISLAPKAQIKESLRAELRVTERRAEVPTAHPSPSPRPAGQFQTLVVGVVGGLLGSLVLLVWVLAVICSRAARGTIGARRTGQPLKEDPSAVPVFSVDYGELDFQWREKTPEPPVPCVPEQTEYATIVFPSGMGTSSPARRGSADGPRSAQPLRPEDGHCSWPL
As to the kind of experiment: Jurkat-PD-1 Cell Binding High-Content Screening Assay (CBA). The assay is classed as cell-based. The following applies: Jurkat-PD-1 cells, PE-labeled PD-L1-Ig 20 nM final; read-out: Jurkat HPD1_PDL1 IC50. Put shortly:
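Binding of fluorescent PD-L1-Ig (phycoerythrin linked via the Ig tag, 20 nM final) to PD-1-overexpressing Jurkat cells was imaged after a 2 h, 37° C compound pretreatment and 1 hour ligand incubation.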
As usually defined, the IC50 is the concentration that inhibits the measured activity by half. As for `CC(C)C[C@H]1NC(=O)[C@H](CCCN)NC(=O)[C@H](C(C)C)NC(=O)[C@H](Cc2ccc(-c3ccccc3)cc2)NC(=O)[C@H](C(C)C)NC(=O)[C@H](Cc2c[nH]c3ccccc23)NC(=O)[C@H](CC(=O)O)NC(=O)[C@H](Cc2ccc(OCC(=O)O)cc2)NC(=O)[C@H](CN)NC(=O)CSC[C@@H](C(=O)N[C@@H](C)C(N)=O)NC(=O)[C@H]([C@@H](C)O)NC(=O)[C@H](C(C)C)NC(=O)[C@H](CC2CCCCC2)NC(=O)[C@H](CCN)NC1=O` [Compound 1312] ({CH2CO}-[Dap]Y(Carboxymethyl)DWV[Bip]V[Orn][dL][Dab][Cha]VTCA-NH2; thioether N-14), the IC50 stood at 0.004 µM.
As for `CC(C)C[C@@H]1NC(=O)[C@H](Cc2c[nH]c3ccccc23)NC(=O)[C@H](CC(=O)O)NC(=O)[C@H](Cc2ccc(OCC(=O)O)cc2)NC(=O)[C@H](CN)NC(=O)CSC[C@@H](C(=O)N[C@@H](C)C(N)=O)NC(=O)[C@H]([C@@H](C)O)NC(=O)[C@H](C(C)C)NC(=O)[C@H](CC(C)C)NC(=O)[C@H](CCN)NC(=O)[C@@H](CC(C)C)NC(=O)[C@H](CCCN)NC(=O)[C@H](C(C)C)NC(=O)[C@H](Cc2ccc(-c3ccccc3)cc2)NC1=O` [Compound 1313] ({CH2CO}-[Dap]Y(Carboxymethyl)DWL[Bip]V[Orn][dL][Dab]LVTCA-NH2; thioether N-14), the IC50 was 0.0157 µM.
As to `CC[C@H](C)[C@@H]1NC(=O)[C@H](CC2CCCCC2)NC(=O)[C@H](CCN)NC(=O)[C@@H](CC(C)C)NC(=O)[C@H](CCCN)NC(=O)[C@H](CCCNC(N)=O)NC(=O)[C@H](Cc2ccc(-c3ccccc3)cc2)NC(=O)[C@H](C(C)C)NC(=O)[C@H](Cc2c[nH]c3ccccc23)NC(=O)[C@H](CC(=O)O)NC(=O)[C@H](Cc2ccc(OCC(=O)O)cc2)NC(=O)[C@H](CN)NC(=O)CSC[C@@H](C(=O)N[C@@H](C)C(N)=O)NC(=O)[C@H]([C@@H](C)O)NC1=O` [Compound 1314] ({CH2CO}-[Dap]Y(Carboxymethyl)DWV[Bip][Cit][Orn][dL][Dab][Cha]ITCA-NH2; thioether N-14), the IC50 worked out at 0.009 µM.
With `CC(C)C[C@H]1NC(=O)[C@H](CCCN)NC(=O)[C@H](CCCNC(N)=O)NC(=O)[C@H](Cc2ccc(-c3ccccc3)cc2)NC(=O)[C@H]([C@@H](C)O)NC(=O)[C@H](Cc2c[nH]c3ccccc23)NC(=O)[C@H](CC(=O)O)NC(=O)[C@H](Cc2ccc(OCC(=O)O)cc2)NC(=O)[C@H](CN)NC(=O)CSC[C@@H](C(=O)N[C@@H](C)C(N)=O)NC(=O)[C@H]([C@@H](C)O)NC(=O)[C@H](C(C)C)NC(=O)[C@H](CC2CCCCC2)NC(=O)[C@H](CCN)NC1=O` [Compound 1315] ({CH2CO}-[Dap]Y(Carboxymethyl)DWT[Bip][Cit][Orn][dL][Dab][Cha]VTCA-NH2; thioether N-14) the figure was 0.0186 µM; with `CC[C@H](C)[C@@H]1NC(=O)[C@H](Cc2c[nH]c3ccccc23)NC(=O)[C@H](CC(=O)O)NC(=O)[C@H](Cc2ccc(OCC(=O)O)cc2)NC(=O)[C@H](CN)NC(=O)CSC[C@@H](C(=O)N[C@@H](C)C(N)=O)NC(=O)[C@H]([C@@H](C)O)NC(=O)[C@H](C(C)C)NC(=O)[C@H](CC2CCCCC2)NC(=O)[C@H](CCN)NC(=O)[C@@H](CC(C)C)NC(=O)[C@H](CCCN)NC(=O)[C@H](CCCNC(N)=O)NC(=O)[C@H](Cc2ccc(-c3ccccc3)cc2)NC1=O` [Compound 1316] ({CH2CO}-[Dap]Y(Carboxymethyl)DWI[Bip][Cit][Orn][dL][Dab][Cha]VTCA-NH2; thioether N-14), 0.0091 µM; with `CC[C@H](C)[C@@H]1NC(=O)[C@H](CCN)NC(=O)[C@@H](CC(C)C)NC(=O)[C@H](CCCN)NC(=O)[C@H](CCCNC(N)=O)NC(=O)[C@H](Cc2ccc(-c3ccccc3)cc2)NC(=O)[C@H](C(C)C)NC(=O)[C@H](Cc2c[nH]c3ccccc23)NC(=O)[C@H](CC(=O)O)NC(=O)[C@H](Cc2ccc(OCC(=O)O)cc2)NC(=O)[C@H](CN)NC(=O)CSC[C@@H](C(=O)N[C@@H](C)C(N)=O)NC(=O)[C@H]([C@@H](C)O)NC(=O)[C@H](C(C)C)NC1=O` [Compound 1317] ({CH2CO}-[Dap]Y(Carboxymethyl)DWV[Bip][Cit][Orn][dL][Dab]IVTCA-NH2; thioether N-14), 0.912 µM.
With `CC(C)C[C@H]1NC(=O)[C@H](CCCN)NC(=O)[C@H](CCCNC(N)=O)NC(=O)[C@H](Cc2ccc(-c3ccccc3)cc2)NC(=O)[C@H](C(C)C)NC(=O)[C@H](Cc2c[nH]c3ccccc23)NC(=O)[C@H](CC(=O)O)NC(=O)[C@H](Cc2ccc(OCC(=O)O)cc2)NC(=O)[C@H](CN)NC(=O)CSC[C@@H](C(=O)N[C@@H](C)C(N)=O)NC(=O)[C@H]([C@@H](C)O)NC(=O)[C@H]([C@@H](C)O)NC(=O)[C@H](CC2CCCCC2)NC(=O)[C@H](CCN)NC1=O` [Compound 1318] ({CH2CO}-[Dap]Y(Carboxymethyl)DWV[Bip][Cit][Orn][dL][Dab][Cha]TTCA-NH2; thioether N-14) the figure was 0.0106 µM.
Turning to `CC(C)C[C@H]1NC(=O)[C@H](CCCN)NC(=O)[C@H](CCCNC(N)=O)NC(=O)[C@H](Cc2ccc(-c3ccccc3)cc2)NC(=O)[C@H](C(C)C)NC(=O)[C@H](Cc2c[nH]c3ccccc23)NC(=O)[C@H](CC(=O)O)NC(=O)[C@H](Cc2ccc(OCC(=O)O)cc2)NC(=O)[C@H](CN)NC(=O)CSC[C@@H](C(=O)N[C@@H](C)C(N)=O)NC(=O)[C@H](C(C)C)NC(=O)[C@H](C(C)C)NC(=O)[C@H](CC2CCCCC2)NC(=O)[C@H](CCN)NC1=O` [Compound 1319] ({CH2CO}-[Dap]Y(Carboxymethyl)DWV[Bip][Cit][Orn][dL][Dab][Cha]VVCA-NH2; thioether N-14), the IC50 worked out at 0.0497 µM.
With `CC[C@H](C)[C@@H]1NC(=O)[C@H](C(C)C)NC(=O)[C@H](CC2CCCCC2)NC(=O)[C@H](CCN)NC(=O)[C@@H](CC(C)C)NC(=O)[C@H](CCCN)NC(=O)[C@H](CCCNC(N)=O)NC(=O)[C@H](Cc2ccc(-c3ccccc3)cc2)NC(=O)[C@H](C(C)C)NC(=O)[C@H](Cc2c[nH]c3ccccc23)NC(=O)[C@H](CC(=O)O)NC(=O)[C@H](Cc2ccc(OCC(=O)O)cc2)NC(=O)[C@H](CN)NC(=O)CSC[C@@H](C(=O)N[C@@H](C)C(N)=O)NC1=O` [Compound 1320] ({CH2CO}-[Dap]Y(Carboxymethyl)DWV[Bip][Cit][Orn][dL][Dab][Cha]VICA-NH2; thioether N-14) the figure was 0.0527 µM; with `CC(C)C[C@@H]1NC(=O)[C@H](C(C)C)NC(=O)[C@H](CC2CCCCC2)NC(=O)[C@H](CCN)NC(=O)[C@@H](CC(C)C)NC(=O)[C@H](CCCN)NC(=O)[C@H](CCCNC(N)=O)NC(=O)[C@H](Cc2ccc(-c3ccccc3)cc2)NC(=O)[C@H](C(C)C)NC(=O)[C@H](Cc2c[nH]c3ccccc23)NC(=O)[C@H](CC(=O)O)NC(=O)[C@H](Cc2ccc(OCC(=O)O)cc2)NC(=O)[C@H](CN)NC(=O)CSC[C@@H](C(=O)N[C@@H](C)C(N)=O)NC1=O` [Compound 1321] ({CH2CO}-[Dap]Y(Carboxymethyl)DWV[Bip][Cit][Orn][dL][Dab][Cha]VLCA-NH2; thioether N-14), 0.0786 µM; with `CC(C)C[C@@H]1NC(=O)[C@H](CC2CCCCC2)NC(=O)[C@H](CCN)NC(=O)[C@@H](CC(C)C)NC(=O)[C@H](CCCN)NC(=O)[C@H](CCCNC(N)=O)NC(=O)[C@H](Cc2ccc(-c3ccccc3)cc2)NC(=O)[C@H](C(C)C)NC(=O)[C@H](Cc2c[nH]c3ccccc23)NC(=O)[C@H](CC(=O)O)NC(=O)[C@H](Cc2ccc(OCC(=O)O)cc2)NC(=O)[C@H](CN)NC(=O)CSC[C@@H](C(=O)N[C@@H](C)C(N)=O)NC(=O)[C@H]([C@@H](C)O)NC1=O` [Compound 1322] ({CH2CO}-[Dap]Y(Carboxymethyl)DWV[Bip][Cit][Orn][dL][Dab][Cha]LTCA-NH2; thioether N-14), 0.0213 µM.
With `CC(C)C[C@@H]1NC(=O)[C@H](CCN)NC(=O)[C@@H](CC(C)C)NC(=O)[C@H](CCCN)NC(=O)[C@H](CCCNC(N)=O)NC(=O)[C@H](Cc2ccc(-c3ccccc3)cc2)NC(=O)[C@H](C(C)C)NC(=O)[C@H](Cc2c[nH]c3ccccc23)NC(=O)[C@H](CC(=O)O)NC(=O)[C@H](Cc2ccncc2)NC(=O)[C@H](Cc2ccc(OCC(=O)O)cc2)NC(=O)CSC[C@@H](C(=O)N[C@@H](C)C(N)=O)NC(=O)[C@H]([C@@H](C)O)NC(=O)[C@H](C(C)C)NC1=O` [Compound 1323] ({CH2CO}-Y(Carboxymethyl)[4Pal]DWV[Bip][Cit][Orn][dL][Dab]LVTCA-NH2; thioether N-14) the figure was 0.0294 µM; with `Cc1cccc(C[C@@H]2NC(=O)[C@H](CC(=O)O)NC(=O)[C@H](Cc3ccncc3)NC(=O)[C@H](Cc3ccc(OCC(=O)O)cc3)NC(=O)CSC[C@@H](C(=O)N[C@@H](C)C(N)=O)NC(=O)[C@H]([C@@H](C)O)NC(=O)[C@H](C(C)C)NC(=O)[C@H](CC(C)C)NC(=O)[C@H](CCN)NC(=O)[C@@H](CC(C)C)NC(=O)[C@H](CCCN)NC(=O)[C@H](CCCNC(N)=O)NC(=O)[C@H](Cc3ccc(-c4ccccc4)cc3)NC(=O)[C@H](C(C)C)NC2=O)c1` [Compound 1324] ({CH2CO}-Y(Carboxymethyl)[4Pal]D[Phe(3-Me)]V[Bip][Cit][Orn][dL][Dab]LVTCA-NH2; thioether N-14), 0.0155 µM.
As to `Cc1cccc(C[C@@H]2NC(=O)[C@H](CC(=O)O)NC(=O)[C@H](Cc3ccncc3)NC(=O)[C@H](Cc3ccc(OCC(=O)O)cc3)NC(=O)CSC[C@@H](C(=O)N[C@@H](C)C(N)=O)NC(=O)[C@H]([C@@H](C)O)NC(=O)[C@H](C(C)C)NC(=O)[C@H](CC3CCCCC3)NC(=O)[C@H](CCN)NC(=O)[C@@H](CC(C)C)NC(=O)[C@H](CCCN)NC(=O)[C@H](CCCNC(N)=O)NC(=O)[C@H](Cc3ccc(-c4ccccc4)cc3)NC(=O)[C@H](C(C)C)NC2=O)c1` [Compound 1325] ({CH2CO}-Y(Carboxymethyl)[4Pal]D[Phe(3-Me)]V[Bip][Cit][Orn][dL][Dab][Cha]VTCA-NH2; thioether N-14), the IC50 is 0.0031 µM.
